Reference: paper PMC3582601, “New analogues of 13-hydroxyocatdecadienoic acid and 12-hydroxyeicosatetraenoic acid block human blood platelet aggregation and cyclooxygenase-1 activity” (Chemistry Central Journal, 2012)
Where two headings read alike, the source gives them in different places.

Tests used:
human washed platelets [1] = assay: Platelet aggregation triggered by arachidonic acid (light transmittance aggregometry); format: cell-based; conditions: for IC50 / Plt aggregation IC50 ± S.E.M: human washed platelets 0.4 x 10^9 plt/ml, inhibitor 1 min before 25 μM arachidonic acid, n = 3–4; for IC50: read-out: Plt aggregation IC50 ± S.E.M; for Effect on arachidonic acid-dependent platelet aggregation: 25 μM arachidonic acid, human washed platelets
Procedure: Figure 2 Aggregation curves of inhibitory compounds. Platelet aggregation was performed on human washed platelets. Platelets (0.4 × 10^9 plt/ml) were treated with increasing concentrations of each inhibitor for 1 min prior to the addition of 25 μM of arachidonic acid for 2 min. Results represent aggregation curves of compound 3 (A), compound 4 (B), compound 7 (C), compound 8 (D), and compound 9 (E). Aggregation curves are representative of at least 4 experiments with similar results.
Slopes of aggregation curves were analyzed by Grafit 7 software and inhibition curves were obtained. (A) represents compounds of type I and (B) compounds of type II. […] Results correspond to mean ± S.E.M. for 3–5 experiments.
(§1) Venous blood was obtained from healthy volunteers who had not ingested any drugs for the last 14 days and after informed consent in accordance with the Institutional Review Board (IRB) of the American University of Beirut (Approval # BioCh.AH.03). Washed platelets were prepared as described previously. Briefly, 20 ml of peripheral blood was withdrawn on ACD-C (1 volume for 9 volumes of blood) and centrifuged at 120 g for 15 min at room temperature (RT) to obtain platelet-rich plasma. Platelet-rich plasma was further centrifuged at 1,200 g for 15 min at RT, and the platelet pellet obtained was washed by Tyrode buffer solution containing 0.1 μM of PGE1 and further centrifuged at 1,200 g for 15 min at RT. […] Aggregation of washed-platelets was determined using light transmittance aggregometry (Chrono-Log Corp., Havertown, PA). 400 μl of platelets (0.4 x 10^9plt/ml) were preincubated for 1 min at 37 °C in the absence or presence of inhibitors prior to the addition of 25 μM of arachidonic acid, which was controlled as optimal in our conditions. In some experiments, platelets were triggered with 1 μM U46619, a TX receptor agonist, or 0.5 μg/ml collagen, a concentration we checked in our conditions to induce COX-dependent platelet aggregation. TXB2 was measured in the supernatant by enzyme immunoassay.
(§2) Aggregation data were expressed after defining the slope for each aggregation curve, which better reflects the rate of the platelet reaction, using the Born’s method. Curve fitting and calculation of the IC50 values were done using Grafit 7 software (Erithacus software, Staines, UK). Results of TXB2 and PGE2 measurement were expressed as the mean ± S.E.M. for at least 3 different experiments and statistical analysis was performed using Sigma Plot (Systat Software Inc., San Jose, CA). Autoradiograms obtained from western blot analyses were scanned using Epson 1680 pro scanner and densitometric analysis was performed using Scion Image (Scion Corporation, MD).

human COX-1 = molecular target: T1, human COX-1 (Homo sapiens, UniProt P23219); assay: COX-1 activity (PGE2 by enzyme immunoassay) in COS-7 cells overexpressing human COX-1; format: cell-based; conditions: COS-7 cells overexpressing human COX-1, 30 min compound then 25 μM arachidonic acid 30 min, n = 3-4, read-out: COX-1 activity IC50 ± S.E.M
T1 construct: expressed in transfected cells; host or cells: COS-7
Procedure: Figure 4 Inhibition of COX-1 activity. Human COX-1 was overexpressed in COS-7 cells. […] PGE2 was measured in the supernatant by enzyme immunoassay. Results were expressed as percentage of PGE2 in arachidonic acid treated samples which was attributed a value of 100. Fitting of curves was done using Grafit software. Results correspond to mean ± S.E.M. for 3 experiments. […] Insert represents Western blot analysis of COX-1 using selective monoclonal COX-1 in untransfected and pcDNA3-COX-1transfected cells.
as §2

thromboxane receptor = molecular target: T2, thromboxane receptor (Homo sapiens, UniProt P21731); assay: Platelet aggregation in response to TX receptor agonist U46619; format: cell-based; conditions: 50 μM compound, 1 μM U46619
T2 construct: Venous blood was obtained from healthy volunteers; endogenous in cells; host or cells: washed human blood platelets
T2 sequence (P21731 1-343): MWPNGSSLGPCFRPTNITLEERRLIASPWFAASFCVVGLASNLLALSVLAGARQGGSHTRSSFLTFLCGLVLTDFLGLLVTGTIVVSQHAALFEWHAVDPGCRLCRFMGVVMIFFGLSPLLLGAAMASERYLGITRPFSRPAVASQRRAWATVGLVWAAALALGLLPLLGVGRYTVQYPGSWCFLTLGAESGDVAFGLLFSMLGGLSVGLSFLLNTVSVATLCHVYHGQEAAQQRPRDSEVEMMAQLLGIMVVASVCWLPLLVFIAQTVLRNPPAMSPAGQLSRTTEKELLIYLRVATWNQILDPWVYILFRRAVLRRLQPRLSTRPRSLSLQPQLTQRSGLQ
Procedure: Figure 7 Effect of inhibitory compounds on platelet aggregation in response to TX receptor agonist, U46619. Platelets (0.4x 10^9 plt/ml) were pretreated with 50 μM of inhibitory compounds 3, 4, 7, 8 and 9 then triggered with 1 μM U46619, a thromboxane receptor agonist. Aggregation curves of compounds of type I (A) and type II (B) are representative of 2 experiments with similar results.
as §1

human washed platelets [2] = assay: Platelet aggregation induced by collagen; format: cell-based; conditions: 0.5 μg/ml collagen
Procedure: Figure 6 Effect of inhibitory compounds on platelet aggregation and TXB2 level formation in response to collagen. […] TXB2 levels were measured in the supernatant of platelets (C). Results represent 3 experiments.
as §1

[3] = test system: COS-7 cells overexpressing COX-1; assay: WST-1 viability assay; conditions: 25 and 50 μM
Procedure: We used COS-7 cells overexpressing human COX-1. […] In these cells which express only COX-1, arachidonic acid is metabolized into prostaglandin (PG) H2 which will consequently breakdown into PGE2. Measurement of PGE2 under these conditions will reflect COX-1 activity [18, 19].
COS-7 cells were grown using DMEM-medium containing 10% fetal bovine serum (FBS). Cells were transfected in suspension with pcDNA3-COX-1 plasmid using FuGENE® 6 transfection reagent at a ratio of 3:1 (FuGENE: DNA, v/w) and then cultured in DMEM media + 10% FBS in 12-well plates. […] PGE2 was measured in the supernatants by enzyme immunoassay [23]. Cells were washed twice with PBS and lysed in lysis buffer. […] Briefly, SDS polyacrylamide electrophoresis was performed using 8% gels followed by protein transfer using a semi-dry transfer machine.

T1 sequence (P23219 24-599): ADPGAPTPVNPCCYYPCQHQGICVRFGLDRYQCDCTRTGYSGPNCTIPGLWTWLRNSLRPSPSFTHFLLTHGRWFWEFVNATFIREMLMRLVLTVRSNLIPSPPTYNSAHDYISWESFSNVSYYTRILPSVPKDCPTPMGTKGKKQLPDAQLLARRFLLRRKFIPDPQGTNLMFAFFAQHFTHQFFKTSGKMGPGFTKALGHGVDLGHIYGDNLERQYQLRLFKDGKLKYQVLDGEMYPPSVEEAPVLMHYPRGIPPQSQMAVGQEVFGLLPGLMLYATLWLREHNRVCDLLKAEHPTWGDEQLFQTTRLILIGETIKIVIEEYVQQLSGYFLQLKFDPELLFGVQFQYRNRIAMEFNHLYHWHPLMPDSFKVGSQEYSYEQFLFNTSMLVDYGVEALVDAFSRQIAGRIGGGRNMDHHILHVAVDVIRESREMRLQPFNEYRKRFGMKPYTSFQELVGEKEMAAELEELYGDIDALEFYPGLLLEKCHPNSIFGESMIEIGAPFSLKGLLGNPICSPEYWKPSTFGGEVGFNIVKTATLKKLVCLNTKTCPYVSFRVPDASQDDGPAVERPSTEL

Structure (SMILES): CCCCCC(O)c1ccc(O)c(OC)c1 (stereo not drawn) [Compound 3]
- IC50 (human washed platelets [1]): 7.5 ± 0.8 µM
- IC50 (human COX-1): 2.2 ± 0.7 µM
- Thromboxane receptor-dependent platelet aggregation (thromboxane receptor): None of the compounds 3, 4, 7, 8 and 9 were able to act
- Platelet aggregation induced by collagen (human washed platelets [2]; 50 μM compound): blocked platelet aggregation induced by collagen
- Toxicity in WST-1 viability assay [3]: absence of toxicity

Structure (SMILES): COc1cc(C(O)C2CCCC2)ccc1O (stereo not drawn) [Compound 6]
- Effect on arachidonic acid-dependent platelet aggregation (human washed platelets [1]): loss of the inhibitory activity
- IC50 (human washed platelets [1]): 41.2 ± 0.7 µM

Structure (SMILES): CCCCCC(O)c1cccc(C(=O)O)c1 (stereo not drawn) [Compound 2]
- Effect on arachidonic acid-dependent platelet aggregation (human washed platelets [1]): no inhibitory effect
- Plt aggregation IC50 ± S.E.M (human washed platelets [1]): No inhibition

Structure (SMILES): CCCCCCCCCC(O)c1ccc(O)c(OC)c1 (stereo not drawn) [Compound 5]
- Effect on arachidonic acid-dependent platelet aggregation (human washed platelets [1]): loss of the inhibitory activity
- IC50 (human washed platelets [1]): 97.6 ± 83.5 µM

Structure (SMILES): COc1cc(C(O)c2ccc(F)cc2)ccc1O (stereo not drawn) [Compound 8]
- Effect on arachidonic acid-dependent platelet aggregation (human washed platelets [1]): significant inhibitory activities
- IC50 (human washed platelets [1]): 13.4 ± 0.5 µM
- IC50 (human COX-1): 6.5 ± 0.2 µM
- Thromboxane receptor-dependent platelet aggregation (thromboxane receptor): None of the compounds 3, 4, 7, 8 and 9 were able to act
- Platelet aggregation induced by collagen (human washed platelets [2]; 50 μM compound): blocked platelet aggregation induced by collagen
- Toxicity in WST-1 viability assay [3]: absence of toxicity

Structure (SMILES): CC(C)Cc1ccc(C(C)C(=O)O)cc1 (stereo not drawn) [Ibuprofen, reference compound]
- IC50 (human washed platelets [1]; Platelet): 0.5 ± 0.11 µM
- Platelet aggregation induced by collagen (human washed platelets [2]; 25 μM ibuprofen): strongly inhibited

Structure (SMILES): CCCCC(O)c1ccc(O)c(OC)c1 (stereo not drawn) [Compound 4]
- IC50 (human washed platelets [1]): 14.2 ± 5.7 µM
- IC50 (human COX-1): 12.1 ± 2.3 µM
- Thromboxane receptor-dependent platelet aggregation (thromboxane receptor): None of the compounds 3, 4, 7, 8 and 9 were able to act
- Platelet aggregation induced by collagen (human washed platelets [2]; 50 μM compound): blocked platelet aggregation induced by collagen
- Toxicity in WST-1 viability assay [3]: absence of toxicity

Structure (SMILES): COc1cc(C(C)(O)c2ccccc2)ccc1O (stereo not drawn) [Compound 9]
- IC50 (human washed platelets [1]): 11.3 ± 4.8 µM
- IC50 (human COX-1): 8.1 ± 1.7 µM
- Thromboxane receptor-dependent platelet aggregation (thromboxane receptor): None of the compounds 3, 4, 7, 8 and 9 were able to act
- Platelet aggregation induced by collagen (human washed platelets [2]; 50 μM compound): blocked platelet aggregation induced by collagen
- Toxicity in WST-1 viability assay [3]: absence of toxicity

Structure (SMILES): CCCCCC(O)c1cccc(C=NO)c1 (stereo not drawn) [Compound 1]
- Effect on arachidonic acid-dependent platelet aggregation (human washed platelets [1]): no inhibitory effect
- Plt aggregation IC50 ± S.E.M (human washed platelets [1]): No inhibition

Structure (SMILES): COc1ccc(C(O)c2ccccc2)cc1OC (stereo not drawn) [Compound 10]
- Effect on arachidonic acid-dependent platelet aggregation (human washed platelets [1]): completely abolished the inhibitory activity
- Plt aggregation IC50 ± S.E.M (human washed platelets [1]): No inhibition

Structure (SMILES): COc1cc(C(O)c2ccccc2)ccc1O (stereo not drawn) [Compound 7]
- Effect on arachidonic acid-dependent platelet aggregation (human washed platelets [1]): significant inhibitory activities
- IC50 (human washed platelets [1]): 8.5 ± 1.2 µM
- IC50 (human COX-1): 1.3 ± 0.5 µM
- Thromboxane receptor-dependent platelet aggregation (thromboxane receptor): None of the compounds 3, 4, 7, 8 and 9 were able to act
- Platelet aggregation induced by collagen (human washed platelets [2]; 50 μM compound): blocked platelet aggregation induced by collagen
- Toxicity in WST-1 viability assay [3]: absence of toxicity
